# Assay results published in US9045403B2 (Coyote Pharmaceuticals, Inc., priority 2012, dated 2015).
# Values joined by “and” are separate entries in the source; they are usually repeats but may differ in a detail not shown here. Equal entries are not always repeated.
# Tests used:
# HSP70 [1] = test: HSP70 expression in Neuro2A cells by western blot; type: cell-based, mouse; conditions: Neuro2A cells, western blot
# Description: Differentiation was induced and cells incubated with geranylgeranyl transferase I inhibitor, GGTI-298. Cells were harvested and lysates were prepared and analyzed by western blot for HSP70 and HSP90. Western signals in the absence of the compounds were normalized as 1.00.
# [2] = system: Sprague-Dawley rats injected with Kainic acid; test: Kainic acid induced neurodegeneration and seizure in rats (Example 21); type: in vivo, rat; conditions: oral
# Excerpt: Seizure behaviors were observed and scored (Ref. R. J. Racine, Modification of seizure activity by electrical stimulation: II. Motor seizure, Electroencephalogr. Clin. Neurophysiol. 32 (1972) 281-294. Modifications were made for the methods). Brain tissues of rats were sectioned on histology slides, and neurons in hippocampus tissues were stained by Nissl. Neurons damaged by Kainic acid and behavior scores were quantified.
# [3] = mouse, in vivo, po, 12 mg/kg
# Description: (§1) A total of 84 male mice (64 transgenic Sod1 mutant mice; 20 wild type mice) were included in the study. Dosing was administered daily beginning at postnatal day 38 (P38) via a single bolus oral gavage injection.
# (§2) Blood and serum samples from days P70 and P100 were collected on three animals from each of the six treatment groups. Hematology measures were white blood cell count, red blood cell count, hemoglobin, hematocrit, mean corpuscular volume, mean corpuscular hemoglobin, mean corpuscular hemoglobin concentration, and platelets. Chemistry values were alanine aminotransferase, aspartate aminotransferase, albumin, total protein, gamma globulin, blood urea nitrogen, cholesterol, and glucose.
# HSP70 [4] = test: HSP70 induction in rat hippocampus with or without stereotactic kainic acid injection; type: in vivo
# Description: Stereotactic injections of Kainic acid into rat hippocampus tissues led to increased damages in neurons. […] Under this condition, neurons and HSP70 expression was stained by immunohistochemistry techniques. HSP70 expression was induced in a very specific area only that KA was injected. The induced area was not stained by HSP70 antibody when KA was not injected, but CNS-102 was dosed.
# HSP70 induction by dosing CNS-102 in the absence of the KA injection was limited in western blot experiments using hippocampus lysates. 120% or 130% of HSP70 expression could be seen by comparing those of vehicle dosing control experiments.
# rats, kainic acid model = test: Concentration dependence of neuroprotection in the kainic acid model; type: in vivo, rat; conditions: one dose at 0, 1, 3, 6, 12 or 24 mg/kg; fraction of cells damaged
# Description: The fraction of cells damaged in the kainic acid model was determined on 130 rats, each receiving one dose of CNS-102 at either 0, 1, 3, 6, 12 or 24 mg/kg. PBS was used for dosing at 0 mg/kg. The linear model of the log10 percent damage versus concentration is graphically shown FIG. 5.
# [5] = Blood chemistry and hematology in Sod1 mutant and wild type mice; conditions: daily oral 12 mg/kg
# Description: as §1, §2
# Neuro2A cells = Neuro2A cells that extended neurites, with GGTI-298 (Example 18); type: cell-based, mouse; conditions: 0.1-1 μM, vehicle 0.0-0.20
# Excerpt: After differentiation was induced, cells that extended neurites were counted.
# [6] = system: Murine neuro2A neuroblastoma cells; test: Neurite outgrowth of neuro2A cells inhibited with GGTI-298 (Example 30); type: cell-based, mouse; conditions: for Relative %: relative to uninhibited count
# Description: Differentiation was induced and cells incubated with geranylgeranyl transferase I inhibitor, GGTI-298. After 24 h digital images were taken and neurite outgrowth was quantified. The comparisons of the neuroprotective effect of these three compounds are shown below.
# The estimated mean log10 counts, from five replicate wells for each treatment group were calculated by PROC GLM in SAS assuming a pooled estimate of variation.
# The estimated mean log10 counts from five replicate wells for each treatment group were calculated by PROC GLM in SAS assuming a pooled estimate of variation.
# Differences in mean log(counts) between treatments for each concentration were calculated using PROC GLM in SAS. The p-value given is for the comparison of the estimated difference to zero, the expected difference value for no treatment effect. The anti-log of the differences represent the estimated ratio of counts (relative effect on inhibition) and are tabulated below along with the lower and upper 95% confidence intervals.
# [7] = system: Sprague Dawley rats, KA injected into the hippocampus; test: Time course of neuroprotection in the kainic acid model; type: in vivo, rat; conditions: for Difference of mean fraction damaged to pooled PBS / Mean fraction of hippocampus cells having KA-induced damage: 12 mg/kg oral; for Mean fraction of hippocampus cells having KA-induced damage: pooled PBS 0.187
# Description: CNS-102 was administered orally to Sprague Dawley rats at 12 mg/kg. After dosing, KA was stereotactically injected into the hippocampus at 24, 48, 72, 96 and 168 hours to induce neuron damage. After 24 h, hippocampus tissue was collected, stained, and imaged. The scans were analyzed by Image J to calculate the fraction of cells having KA-induced damage. Average fraction damaged in the hippocampus from ten animals for each treatment (PBS vs. 12 mg/kg CNS-102) by time (24, 48, 72, 96 and 168 hours) combination was estimated with PROC MIXED in SAS. Comparisons of the CNS-102 treatment groups to the pooled PBS treatment at the different times can be made, giving the results tabulated below.
# [8] = system: Sprague Dawley rats, KA injected into the hippocampus; test: Neuroprotection by CNS-102 in the presence of GGA cis-isomer in the kainic acid model; type: in vivo; conditions: 24 mg/Kg rat oral; KA at 72 hours
# Description: After dosing, KA was stereotactically injected into the hippocampus at 72 hours to induce neuron damage. After 24 h, hippocampus tissue was collected, stained, and imaged. The scans were analyzed by Image J to calculate the fraction of cells having KA-induced damage.
compound,measurement,setting,value
CC(=O)CC/C=C(\C)CC/C=C(\C)CC/C=C(\C)CCC=C(C)C [CNS-102],induction of HSP70 expression (in words),HSP70 [1],induce expression of HSP70 at various concentrations
same,Mean of Hippocampus CA3 neurons damaged (Arbitrary units),[2]; 3 mg/Kg rat,10.25 Arbitrary units
same,Mean of Hippocampus CA3 neurons damaged (Arbitrary units),[2]; 12 mg/Kg rat,10.16 Arbitrary units
same,Mean of Hippocampus CA3 neurons damaged (Arbitrary units),[2]; 25 mg/Kg rat,1.97 Arbitrary units
same,ABSOLUTE BASOPHIL,[3],0 per mm^3
same,BASOPHIL (%),[3],0.0%
same,CALCIUM,[3],7.7 mg/dL
same,CREATININE,[3],<1 mg/dL
same,DIRECT BILIRUBIN,[3],0.0 mg/dL
same,EOSINOPHIL (%),[3],1.5%
same,HCT,[3],46.0%
same,INDIRECT BILIRUBIN,[3],0.0 mg/dL
same,LYMPHOCYTE (%),[3],84.0%
same,MONOCYTE (%),[3],0.8%
same,NRBC (per 100 WBC),[3],0.0 per 100 WBC
same,PHOSPHORUS,[3],5.7 mg/dL
same,PLATELET COUNT (Thousands),[3],1128.6 Thousands
same,RBC (Millions),[3],8.8 Millions
same,TOTAL BILIRUBIN,[3],0.0 mg/dL
same,WBC (thousands),[3],4.7 thousands
same,blood and neurology examinations (in words),[3],no abnormalities in blood and neurology examinations
same,HSP70 induction (in words),"HSP70 [4]; KA stereotactically injected in hippocampus, localized in the injection site",a strong induction of HSP70 was seen very clearly
same,HSP70 expression compared with vehicle dosing control,"HSP70 [4]; western blot of hippocampus lysates, absence of the KA injection",120% and 130%
same,minimal effective dose,"rats, kainic acid model",12 mg/kg
same,cholesterol levels (in words),[5],cholesterol levels were reduced
same,Mean of cell numbers (Arbitrary units),Neuro2A cells,0.45-0.65 Arbitrary units
same,Median Counts of cells with neurite outgrowth,"[6]; 10 nM, CNS-101 vs CNS-102 experiment (no inhibition 95.5, PBS 21.5)",33.8
same,Relative %,"[6]; 10 nM, CNS-101 vs CNS-102 experiment",35.4%
same,Median Counts of cells with neurite outgrowth,"[6]; 100 nM, CNS-101 vs CNS-102 experiment (no inhibition 95.5, PBS 21.5)",43.4
same,Relative %,"[6]; 100 nM, CNS-101 vs CNS-102 experiment",45.4%
same,Median Counts of cells with neurite outgrowth,"[6]; 100 nM, CNS-102 vs CNS-103 experiment (no inhibition 60.3, PBS 18.5)",33.5
same,Relative %,"[6]; 100 nM, CNS-102 vs CNS-103 experiment",55.6%
same,Median Counts of cells with neurite outgrowth,"[6]; 1000 nM, CNS-101 vs CNS-102 experiment (no inhibition 95.5, PBS 21.5)",51.0
same,Relative %,"[6]; 1000 nM, CNS-101 vs CNS-102 experiment",53.4%
same,Median Counts of cells with neurite outgrowth,"[6]; 1000 nM, CNS-102 vs CNS-103 experiment (no inhibition 60.3, PBS 18.5)",23.8
same,Relative %,"[6]; 1000 nM, CNS-102 vs CNS-103 experiment",39.5%
same,Median Counts of cells with neurite outgrowth,"[6]; 10000 nM, CNS-101 vs CNS-102 experiment (no inhibition 95.5, PBS 21.5)",38.2
same,Relative %,"[6]; 10000 nM, CNS-101 vs CNS-102 experiment",40%
same,maximum protection,"[6]; CNS-101 vs CNS-102 experiment, FIG. 4A",~40%
same,maximum protection,"[6]; CNS-102 vs CNS-103 experiment, FIG. 4B",~36%
same,Difference of mean fraction damaged to pooled PBS,[7]; KA at 24 hours,0.005
same,Mean fraction of hippocampus cells having KA-induced damage,[7]; KA at 24 hours,0.193
same,Difference of mean fraction damaged to pooled PBS,[7]; KA at 48 hours,−0.064
same,Mean fraction of hippocampus cells having KA-induced damage,[7]; KA at 48 hours,0.123
same,Difference of mean fraction damaged to pooled PBS,[7]; KA at 72 hours,−0.092
same,Mean fraction of hippocampus cells having KA-induced damage,[7]; KA at 72 hours,0.096
same,Difference of mean fraction damaged to pooled PBS,[7]; KA at 96 hours,−0.056
same,Mean fraction of hippocampus cells having KA-induced damage,[7]; KA at 96 hours,0.131
same,Difference of mean fraction damaged to pooled PBS,[7]; KA at 168 hours,−0.026
same,Mean fraction of hippocampus cells having KA-induced damage,[7]; KA at 168 hours,0.162
same,timepoint of maximal protection effect,[7]; single oral dose of 12 mg/kg,72 h
same,Mean of Hippocampus CA3 neurons damaged (Arbitrary units),[8],19.8182 Arbitrary units
